Results published in PubChem BioAssay (NCI).
“And” between values parts separate entries of the source, which are not always exact repeats. Equal values may be shown once.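 Grown in 96-well plates, cells were treated for 48 hours with each compound at five concentrations. Insufficient inhibition: endpoint recorded as highest concentration tested. GI50: concentration for 50% inhibition of growth. TGI: total growth inhibition.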 *1 amine or outer side, *2 acyl side, *3 side chain or, on linkers, in order; H or OH if unused. Where a SMILES comes first, the peptide text is derived from it. Bridges are numbered along the chain shown (N, C = ends). [ ]: non-standard residue; d: D form. ξ: configuration not given here. X4 = CCC(C)C(N[*:1])C(O)CC(=O)O[C@H](C(=O)C(C)C(=O)[*:2])C(C)C; NMeY = CN[C@@H](Cc1ccc(O)cc1)C(=O)O; ξNMeL = CNC(CC(C)C)C(=O)O; ξT = CC(O)C(N)C(=O)O

Legend:
Test in all cases: inhibition of tumour cell growth, NCI panel, 48 h
[1] = system: LOX IMVI melanoma
[2] = system: PC-3 prostate
[3] = system: SF-295 CNS
[4] = system: SF-268 CNS
[5] = system: HCC-2998 colon
[6] = system: CAKI-1 renal
[7] = system: NCI-H460 lung
[8] = system: SR leukemia
[9] = system: HL-60(TB) leukemia
[10] = system: RXF 393 renal

N#CC1=CNc2sccc2S1(=O)=O
TGI [1]: > 100 µM | TGI [2]: > 100 µM | TGI [3]: > 100 µM | TGI [4]: > 100 µM | TGI [5]: > 100 µM | TGI [6]: > 100 µM | TGI [7]: > 100 µM

CC(C)n1c(=O)n(-c2ccccc2)n(C(C)(C)C)c1=O
TGI [1]: > 100 µM | TGI [8]: > 100 µM | TGI [9]: > 100 µM | TGI [2]: > 100 µM | TGI [3]: > 100 µM | TGI [10]: > 100 µM | TGI [5]: > 100 µM | TGI [6]: > 100 µM | TGI [7]: > 100 µM

NC(CCCCNC(=O)OCc1ccccc1)C(=O)NC(CCCCNC(=O)OCc1ccccc1)C(=O)ON1C(=O)CCC1=O (centres undefined)
TGI [8]: > 100 µM | TGI [9]: > 100 µM | TGI [2]: > 100 µM | TGI [10]: > 100 µM | TGI [5]: > 100 µM | TGI [7]: > 100 µM

O=C(N=Nc1ccccc1Br)NNc1ccccc1Br
TGI [1]: > 100 µM | TGI [8]: > 100 µM | TGI [9]: 86.7 µM | TGI [2]: > 100 µM | TGI [4]: > 100 µM | TGI [5]: 56.6 µM | TGI [6]: > 100 µM | TGI [7]: > 100 µM

CCOC(=O)C(C(=O)Cc1ccccc1)c1ccccc1 (centres undefined)
TGI [1]: > 100 µM | TGI [8]: > 100 µM | TGI [9]: > 100 µM | TGI [3]: > 100 µM | TGI [4]: > 100 µM | TGI [6]: > 100 µM | TGI [7]: > 100 µM

CSc1nncc(-c2cc3c(c(SC)n2)CCC3)n1
TGI [9]: > 100 µM | TGI [2]: > 100 µM | TGI [3]: > 100 µM | TGI [10]: > 100 µM | TGI [4]: > 100 µM | TGI [6]: > 100 µM

COc1c/c(=C2/C=c3ccccc3=N2)[nH]/c1=C/c1[nH]c(C)cc1C
GI50 [9]: 0.05 µM | TGI [9]: 2.77 µM | GI50 [2]: 0.059 µM | TGI [2]: > 100 µM | GI50 [3]: 0.149 µM | TGI [3]: 0.628 µM | GI50 [4]: 0.0309 µM | TGI [4]: > 100 µM | GI50 [6]: 0.0346 µM | TGI [6]: 1.2 µM

COC(=O)C(COC(=O)/C=C/c1ccc(OC(C)=O)c(OC(C)=O)c1)OC(=O)/C=C/c1ccc(OC(C)=O)c(OC(C)=O)c1 (centres undefined)
TGI [1]: 23.4 µM | TGI [8]: 11.1 µM | TGI [2]: 23.4 µM | TGI [3]: 33.2 µM | TGI [10]: 25.8 µM | TGI [4]: 64.2 µM | TGI [5]: 43.4 µM | TGI [6]: 43.1 µM | TGI [7]: 57.2 µM

O=C(/C=C/c1ccc([N+](=O)[O-])cc1)c1nc2ccccc2[nH]1
TGI [1]: > 100 µM | TGI [8]: 11.3 µM | TGI [9]: > 29.9 µM | TGI [2]: > 100 µM | TGI [3]: > 100 µM | TGI [10]: > 100 µM | TGI [4]: > 100 µM | TGI [6]: > 100 µM | TGI [7]: > 100 µM

CCC(C)C1NC(=O)C(NC(=O)C(CC(C)C)N(C)C(=O)[C@@H]2CCCN2)C(C)OC(=O)[C@H](Cc2ccc(OC)cc2)N(C)C(=O)[C@@H]2CCCN2C(=O)[C@H](CC(C)C)NC(=O)C(C)C(=O)[C@H](C(C)C)OC(=O)CC1O (some centres undefined) (H-P[ξNMeL][ξT][X4]LP[NMeY](Me); ester 3-C)
TGI [1]: 0.00206 µM and 0.0101 µM | TGI [8]: 7.45 µM | TGI [9]: 0.0279 µM and 0.0213 µM | TGI [2]: 0.0115 µM | TGI [3]: 0.0149 µM | TGI [4]: 0.00314 µM and 0.0195 µM | TGI [5]: 0.0104 µM and 0.0108 µM | TGI [6]: 0.364 µM and 0.13 µM

COC(=O)C1(C(=O)OC)N=C(C)OC1C(C)C (centres undefined)
TGI [1]: > 100 µM | TGI [8]: > 100 µM | TGI [9]: > 100 µM | TGI [2]: > 100 µM | TGI [3]: > 100 µM | TGI [10]: > 100 µM | TGI [5]: > 100 µM | TGI [6]: > 100 µM | TGI [7]: > 100 µM

N#CCCN(CCCN(C(=O)Nc1ccccc1)c1ccccc1)C(=O)Nc1ccccc1
TGI [1]: > 100 µM | TGI [8]: > 100 µM | TGI [9]: > 100 µM | TGI [2]: > 100 µM | TGI [3]: > 100 µM | TGI [10]: > 100 µM | TGI [5]: > 100 µM | TGI [6]: 28.6 µM | TGI [7]: > 100 µM

COc1ccc(NC2Oc3cc4c(cc3C(c3cc(OC)c(O)c(OC)c3)C2C)OCO4)cc1 (centres undefined)
TGI [9]: 4.51 µM | TGI [2]: > 100 µM | TGI [3]: 60.5 µM | TGI [10]: 61.8 µM | TGI [4]: > 100 µM | TGI [5]: 21.7 µM | TGI [6]: 30 µM | TGI [7]: 23.3 µM

CSCCC(NC(=O)OC(C)(C)C)C(=O)NCCNc1ccc(NCCNC(=O)C(CCSC)NC(=O)OC(C)(C)C)c2c1C(=O)c1ccccc1C2=O (centres undefined)
TGI [1]: 22.8 µM | TGI [8]: 11.3 µM | TGI [2]: 17.7 µM | TGI [3]: 21.1 µM | TGI [10]: 52.8 µM | TGI [4]: 18.7 µM | TGI [5]: 5.99 µM | TGI [6]: > 41.5 µM | TGI [7]: 23.1 µM

O=C(NNC(=S)Nc1ccccc1)c1csc(NC(=S)NC2CCCCC2)n1
TGI [1]: 69.5 µM | TGI [8]: > 100 µM | TGI [9]: > 100 µM | TGI [2]: > 100 µM | TGI [3]: > 100 µM | TGI [4]: > 100 µM | TGI [5]: > 100 µM | TGI [6]: > 100 µM

CCOC(=O)c1cn(-c2ccc(Cl)cc2)c(=O)n2c1nc1ccccc12
TGI [1]: > 100 µM | TGI [8]: > 100 µM | TGI [2]: > 100 µM | TGI [3]: > 100 µM | TGI [10]: > 100 µM | TGI [5]: > 100 µM | TGI [6]: > 100 µM | TGI [7]: > 100 µM

COc1ccc(-c2c(C#N)c(-c3ccccc3)n(NS(=O)(=O)c3ccccc3)c(=O)c2C#N)cc1
TGI [1]: > 100 µM | TGI [9]: > 100 µM | TGI [2]: > 100 µM | TGI [3]: > 100 µM | TGI [10]: > 100 µM | TGI [4]: > 100 µM | TGI [5]: > 100 µM | TGI [6]: > 100 µM | TGI [7]: > 100 µM

O=C1[C@@H]2Cc3c([nH]c4ccccc34)C(C3CCCCC3)N2C(=O)[C@@H]2CCCN12 (some centres undefined)
TGI [1]: 73.9 µM | TGI [8]: 46.8 µM | TGI [9]: 59.2 µM | TGI [2]: 60.6 µM | TGI [3]: 61.1 µM | TGI [10]: > 100 µM | TGI [4]: > 100 µM | TGI [6]: 80.8 µM

O=C1NC(N/N=C\c2ccccc2)=N/C1=C/c1ccc(Cl)cc1
TGI [1]: 67.9 µM | TGI [8]: 40.1 µM | TGI [2]: 43.4 µM | TGI [3]: 78.8 µM | TGI [10]: 47.3 µM | TGI [4]: 94.7 µM | TGI [5]: 36.9 µM | TGI [6]: > 100 µM | TGI [7]: 53.5 µM

OC1OC(c2ccco2)C(F)(F)C(F)(F)C1(F)F (centres undefined)
TGI [1]: > 100 µM | TGI [9]: > 100 µM | TGI [2]: > 100 µM | TGI [3]: > 100 µM | TGI [10]: > 100 µM | TGI [4]: > 100 µM | TGI [7]: > 100 µM

O=C(NCCNCCO)N/N=C/c1ccc(Cl)cc1
TGI [8]: > 100 µM | TGI [9]: > 100 µM | TGI [2]: > 100 µM | TGI [3]: > 100 µM | TGI [4]: > 100 µM | TGI [5]: > 100 µM | TGI [6]: > 100 µM | TGI [7]: > 100 µM

CC[N+](C)(CC)CCN1C(=O)c2ccccc2S1(=O)=O
TGI [1]: > 100 µM | TGI [9]: > 100 µM | TGI [2]: > 100 µM | TGI [3]: > 100 µM | TGI [10]: > 100 µM | TGI [4]: > 100 µM | TGI [6]: > 100 µM | TGI [7]: > 100 µM
